In ChEMBL document CHEMBL1201862, “PubChem BioAssay data set” (2004):
The source made the active and inactive calls.

Columns and labels:
[1] = biological target: T1, Microphthalmia-associated transcription factor (Homo sapiens, UniProt O75030); assay: reducers of TRPM1 reporter luminescence, concentration series – cell-based, SK-MEL-5, cherry-picked, set 3, MITF inhibitor project, dose response (AID 493073); format: functional;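 also: SK-MEL-5 melanoma cells with luciferase driven by the MITF target TRPM1 promoter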
T1 sequence (O75030 whole entry): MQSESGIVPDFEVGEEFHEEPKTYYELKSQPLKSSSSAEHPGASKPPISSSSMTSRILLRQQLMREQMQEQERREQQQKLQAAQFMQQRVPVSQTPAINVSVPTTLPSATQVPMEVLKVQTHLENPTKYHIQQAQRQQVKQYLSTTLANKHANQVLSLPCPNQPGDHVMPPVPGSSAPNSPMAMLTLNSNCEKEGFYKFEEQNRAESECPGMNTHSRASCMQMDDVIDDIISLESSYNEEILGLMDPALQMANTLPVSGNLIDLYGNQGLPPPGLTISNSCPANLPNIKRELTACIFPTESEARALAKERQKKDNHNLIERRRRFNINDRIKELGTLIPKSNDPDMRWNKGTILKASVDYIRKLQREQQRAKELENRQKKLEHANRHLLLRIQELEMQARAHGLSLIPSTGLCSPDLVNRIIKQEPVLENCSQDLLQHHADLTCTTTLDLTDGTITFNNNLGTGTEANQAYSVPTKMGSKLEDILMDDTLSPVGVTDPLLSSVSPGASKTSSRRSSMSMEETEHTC

[2] = biological target: T2, Histone-lysine N-methyltransferase NSD2 (Homo sapiens, UniProt O96028); format: biochemical
T2 sequence (O96028 whole entry): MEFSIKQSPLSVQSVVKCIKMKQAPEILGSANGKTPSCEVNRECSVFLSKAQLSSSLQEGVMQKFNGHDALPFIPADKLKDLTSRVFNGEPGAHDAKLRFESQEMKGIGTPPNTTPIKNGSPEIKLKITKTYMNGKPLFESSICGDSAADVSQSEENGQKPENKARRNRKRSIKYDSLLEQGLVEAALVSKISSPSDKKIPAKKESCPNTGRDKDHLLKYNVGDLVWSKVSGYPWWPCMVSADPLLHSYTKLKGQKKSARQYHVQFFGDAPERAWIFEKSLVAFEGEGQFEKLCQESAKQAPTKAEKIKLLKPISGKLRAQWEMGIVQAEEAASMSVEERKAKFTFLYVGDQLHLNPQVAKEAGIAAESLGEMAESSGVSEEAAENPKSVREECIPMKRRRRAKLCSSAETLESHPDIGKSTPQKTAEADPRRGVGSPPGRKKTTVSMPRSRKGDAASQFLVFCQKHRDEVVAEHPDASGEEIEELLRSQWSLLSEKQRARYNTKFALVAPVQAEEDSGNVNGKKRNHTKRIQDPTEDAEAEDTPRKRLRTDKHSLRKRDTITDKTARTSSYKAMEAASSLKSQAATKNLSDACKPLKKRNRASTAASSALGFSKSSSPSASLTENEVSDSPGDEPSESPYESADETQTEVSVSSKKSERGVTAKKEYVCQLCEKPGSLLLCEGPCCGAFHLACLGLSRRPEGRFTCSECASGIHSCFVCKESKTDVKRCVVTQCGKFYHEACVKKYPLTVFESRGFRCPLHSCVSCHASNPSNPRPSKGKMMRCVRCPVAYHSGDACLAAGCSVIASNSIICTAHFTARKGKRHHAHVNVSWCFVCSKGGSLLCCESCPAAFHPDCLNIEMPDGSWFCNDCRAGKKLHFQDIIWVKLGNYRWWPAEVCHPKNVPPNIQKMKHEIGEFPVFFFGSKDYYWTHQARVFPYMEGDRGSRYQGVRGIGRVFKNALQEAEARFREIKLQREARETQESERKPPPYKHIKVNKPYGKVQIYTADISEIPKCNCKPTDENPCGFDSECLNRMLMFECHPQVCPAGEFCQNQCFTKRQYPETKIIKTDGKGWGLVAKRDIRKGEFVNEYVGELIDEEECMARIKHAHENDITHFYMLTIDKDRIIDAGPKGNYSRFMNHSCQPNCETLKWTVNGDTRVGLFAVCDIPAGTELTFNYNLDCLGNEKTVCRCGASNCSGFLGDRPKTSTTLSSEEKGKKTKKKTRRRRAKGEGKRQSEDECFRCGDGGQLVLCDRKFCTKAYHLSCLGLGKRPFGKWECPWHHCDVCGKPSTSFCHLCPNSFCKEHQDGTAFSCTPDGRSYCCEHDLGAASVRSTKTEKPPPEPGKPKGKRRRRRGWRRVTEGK

[3] = biological target: FAD-linked sulfhydryl oxidase ALR (Homo sapiens, UniProt P55789); assay: ALR-catalysed DTT oxidation blockers – biochemical, H2O2 detection, luminescence, cherry-pick, dose response (AID 493248)
A-375 = assay: proliferation inhibition in MITF-low A375 cells – cell-based, cherry-pick samples, set 2, counter-screen for MITF modulator project, dose response (AID 540335); format: functional; details: Homo sapiens
INS1 = assay: INS-1E mitochondrial potential rescue under cytokines – cell-based, JC-1 fluorescence ratio, dry powder, dose response (AID 488931); format: functional; details: Rattus norvegicus
[4] = biological target: Type-1 angiotensin II receptor (Homo sapiens, UniProt P30556); assay: antagonism of angiotensin II type 1 receptor – cell-based, uHTS hits, selectivity assay for APJ receptor antagonist project, dose response (AID 463214); format: functional;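 also: antagonist potency against angiotensin II stimulated AT1 response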
Beta-galactosidase = Beta-galactosidase (Escherichia coli, UniProt Q8VNN2); assay: PubChem AID 485352; format: functional
Caspase-3 = biological target: T3, Caspase-3 (Homo sapiens, UniProt P42574); format: functional;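 also: Dose-response selectivity test against caspase-3 for candidate inhibitors of sentrin-specific proteases (SENPs)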
T3 sequence (P42574 whole entry): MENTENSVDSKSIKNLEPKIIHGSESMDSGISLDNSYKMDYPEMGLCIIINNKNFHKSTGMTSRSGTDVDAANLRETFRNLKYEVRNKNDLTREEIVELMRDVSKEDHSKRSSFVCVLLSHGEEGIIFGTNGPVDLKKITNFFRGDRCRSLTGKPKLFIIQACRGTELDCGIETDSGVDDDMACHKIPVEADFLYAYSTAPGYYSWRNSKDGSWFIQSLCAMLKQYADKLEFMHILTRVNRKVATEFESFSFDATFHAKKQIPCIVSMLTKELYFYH

[5] = biological target: T4, Sentrin-specific protease 8 (Homo sapiens, UniProt Q96LD8); format: functional;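 also: luminescence read-out of SENP8 inhibition, dose-response confirmation following an ultra-high-throughput screen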
T4 sequence (Q96LD8 whole entry): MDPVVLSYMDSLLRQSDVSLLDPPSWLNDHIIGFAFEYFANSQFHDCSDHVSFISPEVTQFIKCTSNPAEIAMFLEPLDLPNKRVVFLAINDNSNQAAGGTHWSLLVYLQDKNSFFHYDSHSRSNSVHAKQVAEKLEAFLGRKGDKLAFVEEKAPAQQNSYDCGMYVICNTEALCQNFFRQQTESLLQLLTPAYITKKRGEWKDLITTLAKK

[6] = biological target: T5, Sentrin-specific protease 7 (Homo sapiens, UniProt Q9BQF6); format: functional;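 also: Luminescence-based dose-response confirmation of ultra-high-throughput screening hits, measuring inhibition of SENP7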
T5 sequence (Q9BQF6 whole entry): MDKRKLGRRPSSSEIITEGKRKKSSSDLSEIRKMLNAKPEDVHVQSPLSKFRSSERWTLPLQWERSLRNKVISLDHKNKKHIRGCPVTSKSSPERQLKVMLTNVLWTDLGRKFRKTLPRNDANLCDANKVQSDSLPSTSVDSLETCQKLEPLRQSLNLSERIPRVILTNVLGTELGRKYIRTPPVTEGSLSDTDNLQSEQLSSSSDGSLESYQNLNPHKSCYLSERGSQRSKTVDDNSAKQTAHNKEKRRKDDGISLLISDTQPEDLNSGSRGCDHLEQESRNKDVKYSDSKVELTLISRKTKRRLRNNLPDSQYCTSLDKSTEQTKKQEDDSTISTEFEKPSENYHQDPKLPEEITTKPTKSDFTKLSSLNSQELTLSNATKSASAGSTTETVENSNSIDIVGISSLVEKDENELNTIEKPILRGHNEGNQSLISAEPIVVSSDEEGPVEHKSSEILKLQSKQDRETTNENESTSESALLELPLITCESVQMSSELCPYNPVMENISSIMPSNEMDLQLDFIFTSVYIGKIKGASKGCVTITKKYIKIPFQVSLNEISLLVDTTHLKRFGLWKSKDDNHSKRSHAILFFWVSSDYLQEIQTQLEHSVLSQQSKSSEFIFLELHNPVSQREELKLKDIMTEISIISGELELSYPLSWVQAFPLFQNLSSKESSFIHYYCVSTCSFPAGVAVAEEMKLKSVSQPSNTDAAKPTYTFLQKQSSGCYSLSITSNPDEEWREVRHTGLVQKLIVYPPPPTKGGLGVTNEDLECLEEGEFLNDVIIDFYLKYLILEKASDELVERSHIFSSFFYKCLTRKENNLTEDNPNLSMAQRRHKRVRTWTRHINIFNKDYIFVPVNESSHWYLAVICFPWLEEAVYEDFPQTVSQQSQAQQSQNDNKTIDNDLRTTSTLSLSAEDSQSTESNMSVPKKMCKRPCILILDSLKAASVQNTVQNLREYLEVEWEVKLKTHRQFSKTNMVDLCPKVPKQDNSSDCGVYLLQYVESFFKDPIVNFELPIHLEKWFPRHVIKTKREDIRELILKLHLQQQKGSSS

[7] = biological target: T6, Sentrin-specific protease 6 (Homo sapiens, UniProt Q9GZR1); format: functional;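 also: Luminescence-based dose-response confirmatory assay of SENP6 inhibition, following up an ultra-high-throughput screen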
T6 sequence (Q9GZR1 whole entry): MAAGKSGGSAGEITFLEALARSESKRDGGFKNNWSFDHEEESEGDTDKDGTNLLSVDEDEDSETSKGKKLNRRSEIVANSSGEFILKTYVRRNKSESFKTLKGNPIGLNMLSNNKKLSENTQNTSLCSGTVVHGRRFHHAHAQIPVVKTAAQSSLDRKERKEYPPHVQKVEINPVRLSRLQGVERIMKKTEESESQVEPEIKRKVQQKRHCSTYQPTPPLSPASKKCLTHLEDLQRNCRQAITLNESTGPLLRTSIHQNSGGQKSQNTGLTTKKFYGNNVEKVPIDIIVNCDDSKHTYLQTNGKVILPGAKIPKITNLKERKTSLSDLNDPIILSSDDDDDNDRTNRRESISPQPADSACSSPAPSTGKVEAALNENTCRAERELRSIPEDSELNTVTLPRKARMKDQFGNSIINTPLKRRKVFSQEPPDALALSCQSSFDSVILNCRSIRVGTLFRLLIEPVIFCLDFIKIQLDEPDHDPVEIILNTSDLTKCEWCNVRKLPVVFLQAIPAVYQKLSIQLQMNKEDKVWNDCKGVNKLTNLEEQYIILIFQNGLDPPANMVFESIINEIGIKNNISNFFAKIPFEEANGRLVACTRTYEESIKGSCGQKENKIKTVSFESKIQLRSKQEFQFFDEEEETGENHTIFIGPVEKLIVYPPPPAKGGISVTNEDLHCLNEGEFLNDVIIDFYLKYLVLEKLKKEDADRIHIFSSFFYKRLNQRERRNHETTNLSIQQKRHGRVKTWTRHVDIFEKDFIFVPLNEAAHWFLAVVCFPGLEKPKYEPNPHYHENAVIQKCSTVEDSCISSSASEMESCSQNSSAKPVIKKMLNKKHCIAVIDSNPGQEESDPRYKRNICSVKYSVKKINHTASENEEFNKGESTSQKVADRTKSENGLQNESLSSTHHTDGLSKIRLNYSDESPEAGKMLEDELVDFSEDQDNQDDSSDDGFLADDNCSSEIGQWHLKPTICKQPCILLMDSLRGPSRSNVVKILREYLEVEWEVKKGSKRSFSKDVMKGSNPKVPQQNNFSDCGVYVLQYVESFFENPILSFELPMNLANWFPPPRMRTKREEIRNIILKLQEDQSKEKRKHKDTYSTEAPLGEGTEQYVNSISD

[8] = biological target: T7, Heat shock factor protein 1 (Mus musculus, UniProt P38532); assay: decrease of HSF1-responsive luciferase luminescence – cell-based, NIH3T3, dose retest, confirmation (AID 2382); format: functional;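 also: NIH3T3 fibroblasts with HSF1-driven luciferase reporter stressed by proteasome inhibitor MG132; luminescence from HSF1-driven luciferase expression after 8 hours of MG132 stress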
T7 sequence (P38532 whole entry): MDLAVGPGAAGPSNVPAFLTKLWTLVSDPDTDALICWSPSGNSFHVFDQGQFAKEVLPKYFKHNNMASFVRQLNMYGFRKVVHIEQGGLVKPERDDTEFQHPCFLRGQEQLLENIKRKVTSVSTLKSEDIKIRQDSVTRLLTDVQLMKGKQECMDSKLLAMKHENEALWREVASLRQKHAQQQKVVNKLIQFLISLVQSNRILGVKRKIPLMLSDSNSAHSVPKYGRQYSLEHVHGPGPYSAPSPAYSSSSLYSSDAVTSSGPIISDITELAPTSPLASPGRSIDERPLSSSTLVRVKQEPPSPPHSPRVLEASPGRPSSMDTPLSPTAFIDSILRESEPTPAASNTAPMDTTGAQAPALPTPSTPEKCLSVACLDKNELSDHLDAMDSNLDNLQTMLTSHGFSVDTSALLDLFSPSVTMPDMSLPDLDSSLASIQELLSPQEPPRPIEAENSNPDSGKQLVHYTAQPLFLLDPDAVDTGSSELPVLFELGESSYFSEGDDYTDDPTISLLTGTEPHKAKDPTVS

CHO = CHO cell viability loss, potency – luminescence, cytotoxicity control for TLR9-MyD88 binding inhibitor project, dose response (AID 588339); format: functional, cell-based, hamster; details: Cricetulus griseus;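 also: CHO cells stably coexpressing TLR9 and MyD88 fusions from primary screen; compound exposure lasted 48 hours before viability readout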

Sequence of Beta-galactosidase (Q8VNN2 whole entry): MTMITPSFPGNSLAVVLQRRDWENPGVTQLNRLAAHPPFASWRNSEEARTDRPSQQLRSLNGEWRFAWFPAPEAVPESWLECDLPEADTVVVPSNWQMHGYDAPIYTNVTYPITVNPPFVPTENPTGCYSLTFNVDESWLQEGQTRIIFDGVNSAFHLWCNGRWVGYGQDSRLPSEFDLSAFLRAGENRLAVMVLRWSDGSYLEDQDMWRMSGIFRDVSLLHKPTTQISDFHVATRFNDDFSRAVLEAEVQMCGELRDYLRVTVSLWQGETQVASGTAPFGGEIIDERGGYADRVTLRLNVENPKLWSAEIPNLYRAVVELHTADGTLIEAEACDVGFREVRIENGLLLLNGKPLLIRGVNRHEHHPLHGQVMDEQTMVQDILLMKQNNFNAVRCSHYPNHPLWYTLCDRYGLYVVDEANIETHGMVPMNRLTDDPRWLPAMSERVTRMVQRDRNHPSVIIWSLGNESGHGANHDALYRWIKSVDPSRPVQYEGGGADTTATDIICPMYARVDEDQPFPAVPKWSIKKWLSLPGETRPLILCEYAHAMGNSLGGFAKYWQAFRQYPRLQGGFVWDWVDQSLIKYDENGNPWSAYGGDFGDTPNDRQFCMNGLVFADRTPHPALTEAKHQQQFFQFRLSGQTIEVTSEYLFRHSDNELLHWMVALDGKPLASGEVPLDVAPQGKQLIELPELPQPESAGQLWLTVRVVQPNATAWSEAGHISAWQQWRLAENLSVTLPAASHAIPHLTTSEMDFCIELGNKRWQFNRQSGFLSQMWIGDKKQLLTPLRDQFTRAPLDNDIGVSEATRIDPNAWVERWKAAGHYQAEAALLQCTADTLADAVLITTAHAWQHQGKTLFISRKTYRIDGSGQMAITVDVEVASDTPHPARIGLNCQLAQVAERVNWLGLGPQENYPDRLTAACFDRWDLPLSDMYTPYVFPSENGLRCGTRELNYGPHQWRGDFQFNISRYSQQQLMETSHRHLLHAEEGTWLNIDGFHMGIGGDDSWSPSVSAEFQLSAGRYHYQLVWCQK
Sequence of Type-1 angiotensin II receptor (P30556 whole entry): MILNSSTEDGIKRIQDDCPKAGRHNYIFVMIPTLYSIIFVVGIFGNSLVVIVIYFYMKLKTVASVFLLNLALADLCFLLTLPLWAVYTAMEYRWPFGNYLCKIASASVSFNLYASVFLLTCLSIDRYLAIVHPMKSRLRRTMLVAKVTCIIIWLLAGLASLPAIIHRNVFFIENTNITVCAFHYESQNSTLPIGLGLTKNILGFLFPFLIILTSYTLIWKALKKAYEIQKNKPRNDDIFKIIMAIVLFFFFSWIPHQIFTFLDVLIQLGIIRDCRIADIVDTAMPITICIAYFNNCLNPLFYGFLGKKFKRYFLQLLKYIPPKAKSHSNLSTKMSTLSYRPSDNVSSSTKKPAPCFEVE
Sequence of FAD-linked sulfhydryl oxidase ALR (P55789 whole entry): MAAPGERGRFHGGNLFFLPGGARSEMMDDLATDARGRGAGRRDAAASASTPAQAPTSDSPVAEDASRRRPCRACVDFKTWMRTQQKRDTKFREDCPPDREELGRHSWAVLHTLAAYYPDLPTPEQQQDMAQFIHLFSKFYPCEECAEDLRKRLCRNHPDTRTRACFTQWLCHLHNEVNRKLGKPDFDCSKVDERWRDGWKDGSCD

Cc1cc(C)cc(N2C(=O)NC(=O)/C(=C\C=C\c3ccco3)C2=O)c1
AC50 [1]: 4.88 µM (active)
AC50 [2]: 18.1 µM (active)
AC50 [3]: 0.501 µM (active)
AC50 (A-375): 26.7 µM (active)

COc1ccc(S(=O)(=O)N(C)C[C@@H]2Oc3c(NC(=O)C4CCCCC4)cccc3C(=O)N([C@@H](C)CO)C[C@H]2C)cc1
AC50 (INS1): 137 µM (active)

O=S(=O)(N/N=C\c1ccc(-c2ccccc2Cl)o1)c1ccccc1
IC50 [4]: > 40 µM (not active)
EC50 (Beta-galactosidase): > 40 µM (inactive)

Cc1nn2cc(-c3ncc(C(F)(F)F)cc3Cl)cnc2c1Br
IC50 (Caspase-3): 21.5 µM (active)
IC50 [5]: 36.9 µM (active)
IC50 [6]: 19.4 µM (active)
IC50 [7]: 44.8 µM (active)

Cc1nnsc1C(=O)NNc1ccc(C(C)(C)C)cc1
IC50 [4]: 2.56 µM (active)
EC50 (Beta-galactosidase): > 40 µM (inactive)

CC(C)OC(=O)c1sc2nc(-c3ccccc3)ccc2c1N
EC50 [8]: < 0.16 µM (active)
IC50 (CHO): > 49.8 µM (inactive)
